ChEMBL document CHEMBL1201862, “PubChem BioAssay data set” (2004)
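The compound was tested at five concentrations on cells cultured in 96-well plates, with a 48-hour exposure period. GI50 = concentration required for 50% inhibition of growth.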 Activity calls are given as the source filed them. No stated cut-off is given here; in the data, active = GI50 up to about 1.1 µM and inactive = higher.

How the values were obtained:
Test in all cases: NCI tumour cell line growth inhibition, 48 h
[1] = tested on: SNB-75
[2] = tested on: CAKI-1
[3] = tested on: OVCAR-8
[4] = tested on: SF-268
[5] = tested on: HT-29
[6] = tested on: SF-295
[7] = tested on: M14
[8] = tested on: PC-3
[9] = tested on: LOX IMVI
[10] = tested on: RXF 393
[11] = tested on: SR
[12] = tested on: HL-60
[13] = tested on: EKVX
[14] = tested on: DU-145
[15] = tested on: BT-549
[16] = tested on: MOLT-4
[17] = tested on: SW-620
[18] = tested on: NCI-H226
[19] = tested on: TK-10
[20] = tested on: SK-OV-3
[21] = tested on: SF-539
[22] = tested on: UACC-62
[23] = tested on: U-251
[24] = tested on: MCF7
[25] = tested on: CCRF-CEM
[26] = tested on: HOP-92
[27] = tested on: OVCAR-3
[28] = tested on: Malme-3M
[29] = tested on: NCI-H460
[30] = tested on: KM12
[31] = tested on: OVCAR-5
[32] = tested on: MDA-MB-435
[33] = tested on: SN12C
[34] = tested on: Hs-578T
[35] = tested on: A549
[36] = tested on: SK-MEL-28
[37] = tested on: MDA-N
[38] = tested on: IGROV-1
[39] = tested on: UACC-257
[40] = tested on: OVCAR-4
[41] = tested on: SNB-19
[42] = tested on: 786-0
[43] = tested on: T47D
[44] = tested on: SK-MEL-5
[45] = tested on: HCT-15
[46] = tested on: HCC 2998
[47] = tested on: SK-MEL-2
[48] = tested on: A498
[49] = tested on: COLO 205
[50] = tested on: NCI-H522
[51] = tested on: MDA-MB-231
[52] = tested on: HCT-116
[53] = tested on: K562
[54] = tested on: NCI/ADR-RES
[55] = tested on: ACHN
[56] = tested on: RPMI-8226

For `N#CC1(C#N)[C@@H]2CCC=C(Sc3ccccc3)[C@@H]21`, the GI50 [1] was 20.9 µM (inactive), the GI50 [2] was 13.6 µM (inactive) and the GI50 [3] was 16 µM (inactive). For the same compound, the GI50 [4] was 20.1 µM (inactive), the GI50 [5] was 18.6 µM (inactive) and the GI50 [6] was 16.5 µM (inactive). For the same compound, the GI50 [7] was 13.2 µM (inactive), the GI50 [8] was 14.3 µM (inactive) and the GI50 [9] was 13.9 µM (inactive). For the same compound, the GI50 [10] was 13 µM (inactive), the GI50 [11] was 13.1 µM (inactive) and the GI50 [12] was 8.59 µM (inactive). The GI50 [13] was 18.5 µM (inactive), the GI50 [14] was 16 µM (inactive) and the GI50 [15] was 23 µM (inactive). The GI50 [16] was 14.5 µM (inactive), the GI50 [17] was 11.9 µM (inactive) and the GI50 [18] was 13.9 µM (inactive). For the same compound, the GI50 [19] was 14.6 µM (inactive), the GI50 [20] was 19.5 µM (inactive) and the GI50 [21] was 15.5 µM (inactive). For the same compound, the GI50 [22] was 18.4 µM (inactive), the GI50 [23] was 16.1 µM (inactive) and the GI50 [24] was 10.4 µM (inactive). The GI50 [25] was 5.71 µM (inactive), the GI50 [26] was 14.9 µM (inactive) and the GI50 [27] was 17.2 µM (inactive). For the same compound, the GI50 [28] was 16.9 µM (inactive), the GI50 [29] was 19.5 µM (inactive) and the GI50 [30] was 14.9 µM (inactive). The GI50 [31] was 17.8 µM (inactive), the GI50 [32] was 12.9 µM (inactive) and the GI50 [33] was 16.4 µM (inactive). The GI50 [34] was > 100 µM (inactive), the GI50 [35] was 23.4 µM (inactive) and the GI50 [36] was 15 µM (inactive). For the same compound, the GI50 [37] was 13.9 µM (inactive), the GI50 [38] was 19.8 µM (inactive) and the GI50 [39] was 17.5 µM (inactive). For the same compound, the GI50 [40] was 14.3 µM (inactive), the GI50 [41] was 23.9 µM (inactive) and the GI50 [42] was 16.1 µM (inactive). For the same compound, the GI50 [43] was 22.1 µM (inactive), the GI50 [44] was 13.9 µM (inactive) and the GI50 [45] was 17.7 µM. For the same compound, the GI50 [46] was 16.7 µM (inactive), the GI50 [47] was 14.6 µM (inactive) and the GI50 [48] was 31.7 µM (inactive). For the same compound, the GI50 [49] was 17.3 µM (inactive), the GI50 [50] was 10.8 µM (inactive) and the GI50 [51] was 22.2 µM (inactive). The GI50 [52] was 15.7 µM (inactive), the GI50 [53] was 6.71 µM (inactive) and the GI50 [54] was 18.4 µM (inactive). For the same compound, the GI50 [55] was 15.5 µM (inactive) and the GI50 [56] was 12.9 µM (inactive).
